Measured values reported in publication PMC5630639 (Scientific Reports, 2017).

What was measured:
[1] = test system: MGC-803 cells; test: CCK-8 proliferation assay, MGC-803; type: cell-based, human; conditions: for IC50: 48 h, CCK-8, mean ± SD
Procedure: (§1) All synthesized β-lactam-azide derivatives were evaluated for their antiproliferative activity against three cancer cell lines (MGC-803, MCF-7, A549) using CCK-8 proliferation assay. The well-known anticancer drug CA-4P was used as a control[36],[37].
(§2) MGC-803 cell line was obtained from the Chinese Academy of Sciences (Shanghai, China). MCF-7 and A549 were from the National Cell Center, China. MGC-803 cells were cultured in DMEM culture medium (DMEM, Biological Industries, Kibbutz Beit Haemek, Israel). A549 and MCF-7 cells were cultured in 1640 medium (1640, Biological Industries, Kibbutz Beit Haemek, Israel). All medium were supplemented with 10% fetal bovine serum, 100 U/ml penicillin (North China Pharmaceutical group Co.), and 100 µg/ml streptomycin (North China Pharmaceutical group Co.). All cells were cultured at 37 °C in a humidified incubator containing 5% CO2.
(§3) Synthesized analogues used in the study were dissolved in 100% cell culture grade DMSO and the final concentration of DMSO as <0.1% for testing on cancer cell lines. Cytotoxicity assays were performed on the human gastric carcinoma cell line MGC-803, the human mammary carcinoma cell line MCF-7, the human lung carcinoma cell line A549. Cells (3500–5000/well) were seeded into 96-well plates in 100 µL of culture medium. The cells were treated in triplicate with a gradient concentration of testing compounds and incubated at 37 °C, 5% CO2 for 48 h. For all cell lines, CCK-8 assay was performed to measure cytotoxic effects. The absorbance was measured using a microplate reader (BioTek Instrument, Inc. Vermont, USA) with a test wavelength of 450 nm. The absorbance levels were corrected against untreated control absorbance values. All experiments were performed in triplicate and SPSS17.0 was used for data analysis to obtain IC50 values.

[2] = test system: MCF-7 cells; test: CCK-8 proliferation assay, MCF-7; type: cell-based, human; conditions: 48 h, CCK-8, mean ± SD
Procedure: as §1, §2, §3

[3] = test system: A549 cells; test: CCK-8 proliferation assay, A549; type: cell-based, human; conditions: 48 h, CCK-8, mean ± SD
Procedure: as §1, §2, §3

[4] = test system: MGC-803 xenograft; test: MGC-803 xenograft model in nude mice; type: in vivo, BALB/c nude mice; conditions: 100 mg/kg, intragastric daily
Procedure: To evaluate the potential antitumor effects of 28 in vivo, a MGC-803 xenograft model were established in nude mice by subcutaneously injecting MGC-803 cells at its logarithmic phase into the right flank of mice[56]. Tumor bearing mice were then randomly assigned to five groups (control, 100 mg/kg CA-4P, 25, 50, 100 mg/kg 28) with 10 mice per group. Then, the mice were gavaged with saline (control), CA-4P and different concentrations of 28 in saline solution daily. […] At the end of the observation period, mean tumor volumes of control, CA-4P, 25, 50, and 100 mg/kg 28 groups were 1665.98 ± 568.36 mm^3, 642.61 ± 449.92 mm^3, 788.18 ± 435.92 mm^3, 1125.93 ± 668.25 mm^3 and 1273.88 ± 513.69 mm^3, respectively. […] The antitumor activity of 28 in vivo was similar to that of CA-4P.
Animals were treated according to protocols established by the ethics committee of Zhengzhou University and the in vivo experiments were carried out in accordance with the approved guidelines and approved by the ethics committee of Zhengzhou University. BALB/c nude mice (18 g, aged 4–5 weeks) were purchased from Human SJA Laboratory Animal Co. Ltd. (Hunan, China). Mice were subcutaneously implanted with MGC-803 cells (5 × 10^6 cells per mouse) on the right flank of nude mice. Once tumor volumes reached to approximately 100 mm^3, the mice were randomly divided into corresponding saline, CA-4P (100 mg/kg), 28 (100 mg/kg), 28 (50 mg/kg) and 28 (25 mg/kg) treatment groups (n = 10 mice for each group). The treatment groups received intragastric administration of 28 and CA-4P per day for a period of 21 days. Then, the mice were euthanized and tumors isolated and weighed. Their body weights were measured and tumor sizes determined by vernier caliper measurement every other day.

| Molecule | IC50 ([1]; Homo sapiens, MGC-803) | IC50 ([2]; Homo sapiens, MCF7) | IC50 ([3]; Homo sapiens, A549) | also measured |
| --- | --- | --- | --- | --- |
| COc1ccc(N2C(=O)[C@H](c3ccccc3)[C@H]2c2ccc(N=[N+]=[N-])cc2)cc1OC (relative stereo) [Compound 12, trans-4-(4-azidophenyl)-1-(3,4-dimethoxyphenyl)-3-phenylazetidin-2-one] | > 20000 nM | > 20 µM | > 20 µM | – |
| COc1ccc(N2C(=O)[C@H](c3ccc(Cl)cc3)[C@H]2c2ccc(N=[N+]=[N-])cc2)cc1 (relative stereo) [Compound 14, trans-4-(4-azidophenyl)-3-(4-chlorophenyl)-1-(4-methoxyphenyl)azetidin-2-one] | > 20000 nM | > 20 µM | > 20 µM | melting point: 147 to 149 °C |
| COc1ccc(N2C(=O)[C@@H](c3ccccc3)[C@@H]2c2ccc(N=[N+]=[N-])cc2)cc1 (relative stereo) [Compound 15, trans-4-(4-azidophenyl)-1-(4-methoxyphenyl)-3-phenylazetidin-2-one] | > 20000 nM | > 20 µM | > 20 µM | melting point: 114 to 116 °C |
| COc1cccc([C@H]2C(=O)N(c3ccc(OC)c(OC)c3)[C@@H]2c2ccc(N=[N+]=[N-])cc2)c1 (relative stereo) [Compound 16, trans-4-(4-azidophenyl)-1-(3,4-dimethoxyphenyl)-3-(3-methoxyphenyl)azetidin-2-one] | > 20000 nM | > 20 µM | > 20 µM | – |
| COc1ccc([C@H]2C(=O)N(c3ccc(OC)cc3OC)[C@@H]2c2cccc(N=[N+]=[N-])c2)cc1 (relative stereo) [Compound 21, trans-4-(3-azidophenyl)-1-(2,4-dimethoxyphenyl)-3-(4-methoxyphenyl)azetidin-2-one] | > 20000 nM | > 20 µM | > 20 µM | – |
| COc1ccc(N2C(=O)[C@H](c3ccc(F)cc3)[C@H]2c2cccc(N=[N+]=[N-])c2)c(OC)c1 (relative stereo) [Compound 22, trans-4-(3-azidophenyl)-1-(2,4-dimethoxyphenyl)-3-(4-fluorophenyl)azetidin-2-one] | > 20000 nM | > 20 µM | > 20 µM | – |
| COc1ccc([C@H]2C(=O)N(c3cc(OC)c(OC)c(OC)c3)[C@@H]2c2ccc(-n3cc(CSC(=S)N4CCCC4)nn3)cc2)cc1 (relative stereo) [Compound 31, (1-(4-(trans-3-(4-methoxyphenyl)-4-oxo-1-(3,4,5-trimethoxyphenyl)azetidin-2-yl)phenyl)-1H-1,2,3-triazol-4-yl)methylpyrrolidine-1-carbodithioate] | > 20000 nM | > 20 µM | > 20 µM | – |
| CCN1CCN(C(=S)SCc2cn(-c3ccc([C@@H]4[C@@H](c5ccccc5)C(=O)N4c4cc(OC)c(OC)c(OC)c4)cc3)nn2)CC1 (relative stereo) [Compound 32, (1-(4-(trans-4-oxo-3-phenyl-1-(3,4,5-trimethoxyphenyl)azetidin-2-yl)phenyl)-1H-1,2,3-triazol-4-yl)methyl-4-ethylpiperazine-1-carbodithioate] | > 20000 nM | > 20 µM | > 20 µM | – |
| COc1ccc(/C=C\c2cc(OC)c(OC)c(OC)c2)cc1OP(=O)(O)O [CA-4P, reference compound] | – | – | – | IC50 [1]: 15 ± 1 nM; IC50 [2]: 0.023 ± 0.002 µM; IC50 [3]: 0.033 ± 0.007 µM; inhibitory rate (tumor weight) ([4]; 21 days): 63.27%; average tumor weight ([4]; 21 days (control 1.23 ± 0.28)): 0.45 ± 0.22 g; mean tumor volume at end of observation period ([4]; 21 days (control 1665.98 ± 568.36)): 642.61 ± 449.92 mm^3 |
| COc1ccc([C@H]2C(=O)N(c3ccc(OC)c(OC)c3)[C@@H]2c2ccc(N=[N+]=[N-])cc2)cc1 [Compound 13, trans-4-(4-azidophenyl)-1-(3,4-dimethoxyphenyl)-3-(4-methoxyphenyl)azetidin-2-one] | > 20000 nM | > 20 µM | > 20 µM | – |
| COc1cc(N2C(=O)[C@@](c3ccccc3)(S(=O)(=O)C(F)(F)F)[C@H]2c2ccc(N=[N+]=[N-])cc2)cc(OC)c1OC [Compound 35, 4-(4-azidophenyl)-3-phenyl-3-((trifluoromethyl)sulfonyl)-1-(3,4,5-trimethoxyphenyl)azetidin-2-one] | > 20000 nM | > 20 µM | > 20 µM | – |
| COc1cc(N2C(=O)[C@@](c3ccccc3)(S(=O)(=O)C(F)(F)F)[C@H]2c2cccc(N=[N+]=[N-])c2)cc(OC)c1OC [Compound 36, 4-(3-azidophenyl)-3-phenyl-3-((trifluoromethyl)sulfonyl)-1-(3,4,5-trimethoxyphenyl)azetidin-2-one] | > 20000 nM | > 20 µM | > 20 µM | – |
| trans-4-phenyl-3-(thiophen-2-yl)-1-(3,4,5-trimethoxyphenyl)azetidin-2-one [Compound 27] | – | – | – | IC50 [1]: > 20000 nM; IC50 [2]: > 20 µM; IC50 [3]: > 20 µM |

More lines, in order of falling IC50 ([1]; Homo sapiens, MGC-803), values ahead:

| IC50 ([1]; Homo sapiens, MGC-803) | IC50 ([2]; Homo sapiens, MCF7) | IC50 ([3]; Homo sapiens, A549) | Molecule | also measured |
| --- | --- | --- | --- | --- |
| 1400 ± 127 nM | 2.88 ± 0.494 µM | 18.1 ± 1.71 µM | COc1cccc([C@H]2C(=O)N(c3cc(OC)c(OC)c(OC)c3)[C@@H]2c2cccc(N=[N+]=[N-])c2)c1 (relative stereo) [Compound 23, trans-4-(3-azidophenyl)-3-(3-methoxyphenyl)-1-(3,4,5-trimethoxyphenyl)azetidin-2-one] | – |
| 1400 ± 133 nM | 2.88 ± 0.489 µM | 18.1 ± 2.31 µM | COc1cccc([C@H]2C(=O)N(c3cc(OC)c(OC)c(OC)c3)[C@@H]2c2ccc(N=[N+]=[N-])cc2)c1 (relative stereo) [Compound 19, trans-4-(4-azidophenyl)-3-(3-methoxyphenyl)-1-(3,4,5-trimethoxyphenyl)azetidin-2-one] | activity loss against the growth of MGC-803 cells ([1]; hydrogen atom (18) replaced with methoxy group (19)): over 8 fold |
| 840 ± 630 nM | 4 ± 0.922 µM | 5.76 ± 0.887 µM | COc1cc(N2C(=O)[C@H](c3ccc(F)cc3)[C@H]2c2cccc(N=[N+]=[N-])c2)cc(OC)c1OC (relative stereo) [Compound 24, trans-4-(3-azidophenyl)-3-(4-fluorophenyl)-1-(3,4,5-trimethoxyphenyl)azetidin-2-one] | – |
| 590 ± 14 nM | 1.07 ± 0.024 µM | 3.22 ± 0.349 µM | COc1ccc([C@H]2C(=O)N(c3cc(OC)c(OC)c(OC)c3)[C@@H]2c2ccc(N=[N+]=[N-])cc2)cc1 (relative stereo) [Compound 17, trans-4-(4-azidophenyl)-3-(4-methoxyphenyl)-1-(3,4,5-trimethoxyphenyl)azetidin-2-one] | – |
| 392 ± 28 nM | 0.805 ± 0.176 µM | 2.13 ± 0.39 µM | COc1cc(N2C(=O)[C@@H](c3ccccc3)[C@@H]2c2cccc(N=[N+]=[N-])c2)cc(OC)c1OC (relative stereo) [Compound 25, trans-4-(3-azidophenyl)-3-phenyl-1-(3,4,5-trimethoxyphenyl)azetidin-2-one] | melting point: 128 to 129 °C |
| 171 ± 51 nM | 0.338 ± 0.004 µM | 1.74 ± 0.145 µM | COc1cc(N2C(=O)[C@H](c3ccccc3)[C@H]2c2ccc(N=[N+]=[N-])cc2)cc(OC)c1OC (relative stereo) [Compound 18, trans-4-(4-azidophenyl)-3-phenyl-1-(3,4,5-trimethoxyphenyl)azetidin-2-one] | melting point: 66 to 68 °C |
